From patent publication US20240024281A1, “METHODS AND COMPOSITIONS FOR TREATING LIVER DISEASES” (INSTITUT NATIONAL DE LA SANTÉ ET DE LA RECHERCHE MÉDICALE, priority 2018, published 2024)
Entries after “also recorded” stand apart in the source; their conditions may differ.

Tests used:
[1] = target: T1, IRE1α RNase activity (Mus musculus, UniProt Q9EQY0); test: IRE1α RNase signaling (XBP1 mRNA, sXBP1 protein) in primary hepatocytes from BI-1−/− or WT mice; format: cell-based; settings: BI-1−/− primary hepatocytes; STF-083010 60 μM
T1 construct: Hepatocytes from mouse liver were isolated by a two-step collagenase procedure; endogenous in cells; host or cells: primary hepatocytes isolated from livers of BI-1−/− and WT mice
T1 sequence (Q9EQY0 21-977): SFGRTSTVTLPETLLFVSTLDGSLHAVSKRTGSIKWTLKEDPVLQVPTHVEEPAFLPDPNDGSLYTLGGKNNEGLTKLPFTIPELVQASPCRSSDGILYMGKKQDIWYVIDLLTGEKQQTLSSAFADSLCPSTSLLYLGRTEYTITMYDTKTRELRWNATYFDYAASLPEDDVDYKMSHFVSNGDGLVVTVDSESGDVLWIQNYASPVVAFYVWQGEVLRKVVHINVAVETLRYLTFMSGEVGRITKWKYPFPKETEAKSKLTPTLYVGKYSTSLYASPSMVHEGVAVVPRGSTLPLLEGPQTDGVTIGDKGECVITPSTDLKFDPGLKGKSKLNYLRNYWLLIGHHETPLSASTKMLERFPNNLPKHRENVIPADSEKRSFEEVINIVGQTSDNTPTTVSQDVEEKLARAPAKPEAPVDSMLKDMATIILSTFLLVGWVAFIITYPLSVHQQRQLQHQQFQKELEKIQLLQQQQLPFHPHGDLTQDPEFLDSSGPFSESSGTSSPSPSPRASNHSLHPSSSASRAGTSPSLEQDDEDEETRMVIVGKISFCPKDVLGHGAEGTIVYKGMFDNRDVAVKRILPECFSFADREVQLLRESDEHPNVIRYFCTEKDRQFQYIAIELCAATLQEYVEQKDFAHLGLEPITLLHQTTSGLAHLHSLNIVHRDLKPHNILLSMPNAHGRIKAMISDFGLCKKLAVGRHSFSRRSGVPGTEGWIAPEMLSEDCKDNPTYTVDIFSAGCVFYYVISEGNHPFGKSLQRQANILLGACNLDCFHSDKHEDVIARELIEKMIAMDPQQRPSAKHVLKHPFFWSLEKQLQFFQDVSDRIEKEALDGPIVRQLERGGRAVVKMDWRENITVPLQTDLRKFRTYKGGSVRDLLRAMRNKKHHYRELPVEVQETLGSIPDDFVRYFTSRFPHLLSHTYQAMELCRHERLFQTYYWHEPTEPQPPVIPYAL
Protocol: (§1) Total RNA was extracted from liver tissue or cells then reverse-transcribed as previously described15. Real-time quantitative PCR was performed using the ABI PRISM 7500/Step-One Fast Real Time PCR System following the manufacturer's protocols in C3M genomics facilities. See the Supporting Methods for TaqMan gene expression assays.
(§2) Total protein was isolated from snap-frozen livers or primary hepatocytes homogenized in detergent-containing buffer, normalized for protein content (40 μg/tissue sample and 20 μg/cell sample), and analyzed by SDS-PAGE (8-15% gels) immunoblotting as previously described15. Western blot analyses were performed using antibodies described in Supporting Methods and detected with an enhanced chemiluminescence method (Amersham Biosciences, Piscataway, NJ, USA). Immunoblots were scanned and the signals were quantified using ImageJ software.
Hepatocytes from mouse liver were isolated by a two-step collagenase procedure, as we described18,23 and cultured in media detailed in Supporting Methods. […] After 48 hr of transfection, cells were treated with TM (1 μg/ml) or LPS (100 ng/ml) for the determined times. […] Cell viability was determined by a colorimetric assay (MTT) detailed in Supporting Methods. […]

[2] = test system: NLRP3 inflammasome; test: Caspase-11 and NLRP3 overexpression in LPS-treated primary hepatocytes; format: cell-based, mouse; settings: LPS-treated BI-1−/− primary hepatocytes; STF-083010 60 μM
Protocol: as §2
Hepatocytes from mouse liver were isolated by a two-step collagenase procedure, as we described18,23 and cultured in media detailed in Supporting Methods. When indicated, primary hepatocytes were transfected with Stealth siRNA (targeting BI-1, IRE1α, XBP1 or CHOP with the corresponding control of Low or Medium CG) at 30 nM using Lipofectamine RNAiMAX (ThermoFisher Scientific, Courtaboeuf, France) according to the manufacturer's instructions. After 48 hr of transfection, cells were treated with TM (1 μg/ml) or LPS (100 ng/ml) for the determined times. Primary hepatocytes isolated from the livers of BI-1−/− and WT mice were treated with TM or LPS in the presence or absence of STF-083010 (60 μM) or Ac-YVAD-CMK (25 μM). Cell viability was determined by a colorimetric assay (MTT) detailed in Supporting Methods. […]

[3] = test system: primary hepatocytes isolated from the livers of BI-1−/− and WT mice; test: Primary hepatocyte viability (MTT) with TM or LPS; format: cell-based, mouse
Protocol: Hepatocytes from mouse liver were isolated by a two-step collagenase procedure, as we described18,23 and cultured in media detailed in Supporting Methods. When indicated, primary hepatocytes were transfected with Stealth siRNA (targeting BI-1, IRE1α, XBP1 or CHOP with the corresponding control of Low or Medium CG) at 30 nM using Lipofectamine RNAiMAX (ThermoFisher Scientific, Courtaboeuf, France) according to the manufacturer's instructions. After 48 hr of transfection, cells were treated with TM (1 μg/ml) or LPS (100 ng/ml) for the determined times. Primary hepatocytes isolated from the livers of BI-1−/− and WT mice were treated with TM or LPS in the presence or absence of STF-083010 (60 μM) or Ac-YVAD-CMK (25 μM). Cell viability was determined by a colorimetric assay (MTT) detailed in Supporting Methods. Results are presented as a percentage of the control values.

[4] = test system: HFD-fed BI-1−/− mice; test: HFD- or ND-fed BI-1+/+ and BI-1−/− mice treated with STF-083010 (NASH development); format: in vivo, mouse
Protocol: FIG. 1A-C: Early Into HFD feeding, limiting the ER stress response by inhibiting IRE1α RNase activity protects from steatosis and hyperglycemia. Starting 2.5 months after HFD feeding, BI-1+/+ and BI-1−/− mice were treated with STF-083010 (30 mg/kg) or vehicle (NT, Kolliphor 16%) twice a week for 2 weeks before sacrifice. (A) Relative liver triglyceride levels.
(A) Protocol timeline for vehicle (NT, Kolliphor 16%) or STF-083010 (30 mg/kg) injections in HFD-fed BI-1+/+ and BI-1−/− mice. (B) qPCR analysis of hepatic genes involved in lipid synthesis and metabolism (n=3). […] (C) Blood glucose concentrations in fed BI-1+/+ and BI-1−/− mice (n=6).
All animal procedures were conducted in compliance with French guidelines for the humane care and use of experimental animals. Male mice with targeted disruption of the BI-1 gene representing BI-1+/+(WT) and BI-1−/− littermates on a C57BL/6 background were obtained from Dr. John C. Reed at the Stanford-Burnham Institute for Medical Research (La Jolla, CA, USA)17,18. Experiments conducted with 12-week old mice included: 1) Mice injected intraperitoneally with TM (1 mg/kg) or vehicle and sacrificed 48 hr after treatment (unless otherwise indicated), 2) Animals either fed a ND (A04—Safe Diet, Augy, France) or HFD (60 kJ % fat, D12492-ssniff, Soest, Germany) for up to 9 months, 3) Towards the end of a 3-month ND or HFD, mice were injected with STF-083010 (30 mg/kg) or vehicle twice a week for 2 weeks before sacrifice. Mice were housed in a controlled environment with 12 hr light/dark cycles with water available ad libitum.
Liver tissue specimens were fixed in 10% buffered formalin, embedded in paraffin, sectioned (5 μm thick) and stained with either H&E, Masson's trichrome, MPO or TUNEL (Roche Molecular Biochemicals, Meylan, France). Specimens were evaluated by microscopy in a blinded manner by a liver pathologist.
as §1, §2
Serum AST and ALT levels were determined using a standardized UV test after activation with pyridoxal-phosphate and serum triglyceride levels were determined by standardized enzymatic colorimetric assay (Roche-Hitachi analyzer Cobas 8000, Meylan, France). Hepatic triglyceride content was measured using a Triglycerides FS 10′ kit (DiaSys, Holzheim, Germany). Cytokines were quantitatively measured by flow cytometry as described15.

[5] = test system: liver cancer cell (HepG2, Huh7 and Hep3B); test: Liver cancer cell proliferation; format: cell-based; settings: for liver cancer cell proliferation and apoptosis, alone and co-treated with sorafenib (confirmation of the STF-083010 data): data not shown
Protocol: (§3) FIG. 3A-B: Inhibition of IRE1α RNase signalling with STF potentiates the effectiveness of Sorafenib in reducing liver cancer cell proliferation and inducing apoptosis. Effect of Sorafenib (SORA, 5 μM), STF-083010 (STF, 60 μM) and their combination on (A) liver cancer cell proliferation (HepG2, Huh7 and Hep3B) and on (B) inducing apoptosis. STF-083010 was added one hour before SORA. Stimulations were performed during 24 hours. $p<0.05 when comparing treated to untreated counterpart. Results are expressed as mean with SEM *p<0.05, **p<0.01, ***p<0.001 and ****p<0.0001.
(§4) FIG. 4: Hyperactive IRE1α RNase triggers secretion of pro-inflammatory markers. Effect of Sorafenib (SORA, […]), Ac-YVAD-CMK (YVAD, 25 μM) and their combination on liver cancer cell proliferation (HepG2) and on inducing apoptosis. Ac-YVAD-CMK (YVAD) was added one hour before SORA. Stimulations were performed during 24 hours. $p<0.05 when comparing treated to untreated counterpart. Results are expressed as mean with SEM *p<0.05, **p<0.01, ***p<0.001 and ****p<0.0001.
FIG. 5A-B: Co-treatment enhancing apoptosis via IRE1α kinase activity. Effect of Sorafenib (SORA, 5 μM), STF-083010 (STF, 60 μM) and their combination on HepG2 cells proliferation with or without (A) JNK inhibitor SP600125 (SP, 50 μM) pre-treatment or (B) Necrostatin (Nec-1, 50 μM) pre-treatment. Stimulations were performed during 24 hours. $p<0.05 when comparing treated to untreated counterpart. Results are expressed as mean with SEM *p<0.05, **p<0.01, ***p<0.001 and ****p<0.0001.

[6] = test system: HCC cell lines; test: Apoptosis induction in HCC cell lines; format: cell-based; settings: 24 hours
Protocol: as §3, §4

[7] = test system: xenograft HepG2 cells; test: Xenograft mouse model of HCC, tumor volume; format: in vivo, mice
Protocol: FIG. 6A-B: Inhibition of IRE1α RNase activity with STF potentiates Sorafenib action in vivo. (A) Protocol timeline for Sorafenib (30 mg/kg i.p. daily) and/or STF-083010 (30 mg/kg i.p. twice a week) injections in mice with xenograft HepG2 cells. (B) Effect of SORA, STF, and their combination on tumor volume in mice. $p<0.05 when comparing treated to untreated counterpart. Results are expressed as mean with SEM *p<0.05.

[8] = BI-1−/− mice after 3 months of HFD
[9] = BI-1−/− mice, twice a week for 2 weeks towards the end of a 3-month HFD

For O=S(=O)(N=Cc1c(O)ccc2ccccc12)c1cccs1 [STF-083010, N-[(2-Hydroxy-1-naphthalenyl)methylene]-2-thiophenesulfonamide], which “XBP1 mRNA levels” value [1] is on record?
The value was “decrease”.

And the sXBP1 protein [1]?
Its sXBP1 protein is “decrease”.

And the “overexpression of active caspase-11 and NLRP3” value [2]?
The value was “limited”.

And the “viability of WT hepatocytes” value ([3]; STF-083010 alone, 60 μM)?
Its value is “compromised the viability”.

What about the “viability of BI-1−/− hepatocytes” value ([3]; co-treated with TM and LPS, STF-083010 60 μM) of the same compound?
Its value is “improved the viability”.

And the NASH development ([4]; BI-1-deficient mice, HFD)?
The NASH development was “rescuing from NASH; also recorded: reverses the propensity”.

And the “histological signs of inflammation and grade-3 steatosis” value ([4]; BI-1−/− HFD mice, 30 mg/kg twice a week for 2 weeks)?
Its value is “suppressed”.

And the “activation of caspase-1/-11 and NLRP3 proteins” value ([4]; BI-1−/− HFD-fed mice)?
Its value is “counteracted the activation”.

What about the “mRNA levels of NLRP3 inflammasome and pro-inflammatory response components” value ([4]; BI-1−/− HFD-fed mice) of the same compound?
Its value is “normalized”.

And the “collagen accumulation with cellular infiltration” value [4, 8]?
The value was “prevented”.

What about the “hepatic Col6a3 upregulation” value [4, 8] of the same compound?
Its value is “significantly limited”.

And the “liver discoloration (macroscopic)” value ([4]; BI-1−/− mice fed a HFD for 3 months, 30 mg/kg twice a week for 2 weeks)?
Its value is “prevented”.

What about the “IRE1a endoribonuclease activity in vivo” value [4, 9] of the same compound?
The value was “effectively counteracted”.

What about the glucose tolerance [4, 9] of the same compound?
The glucose tolerance was “improving”.

And the “mRNA levels of metabolic master regulators (SREBP1, FASN and c-JUN)” value ([4]; HFD-fed BI-1−/− mice, liver qPCR, FIG. 2B)?
Its value is “within normal mRNA levels”.

What about the “lipid droplet diameter in hepatocytes” value ([4]; HFD-fed BI-1−/− mice, 30 mg/kg twice a week for 2 weeks) of the same compound?
The value was “from massive to average size”.

And the liver triglyceride content ([4]; HFD-fed BI-1−/− mice, 30 mg/kg twice a week for 2 weeks, FIG. 1A)?
The liver triglyceride content was “Normalized”.

What about the liver injury ([4]; HFD-fed mice, both genotypes) of the same compound?
The liver injury was “protected from liver injury”.

And the blood glucose concentrations ([4]; HFD-fed mice, FIG. 2C)?
The blood glucose concentrations was “normalization”.

And the “appearance of the liver” value ([4]; ND-fed mice)?
The value was “did not alter”.

What about the MPO-positive cells ([4]; STF-083010-treated versus untreated mice fed a HFD) of the same compound?
Its MPO-positive cells is “significant decrease”.

What about the “increase in BI-1 mRNA levels” value ([4]; WT mice fed a HFD, FIG. 1C) of the same compound?
Its value is 15%.

What about the “CHOP/GRP78 ratio, protein and mRNA levels” value ([4]; livers from BI-1−/− mice, HFD) of the same compound?
Its value is “reduced”.

What about the “expression of IRE1α RNase target sXBP1, protein and mRNA levels” value ([4]; livers from BI-1−/− mice, HFD) of the same compound?
The value was “reduced”.

And the “liver cancer cell proliferation” value ([5]; HepG2, Huh7 and Hep3B, 60 μM alone, 24 hours, FIG. 3A)?
The value was “reduces”.

What about the “effectiveness of sorafenib in reducing liver cancer cell proliferation” value ([5]; co-treated with Sorafenib 5 μM, STF 60 μM added one hour before, 24 hours, FIG. 3A) of the same compound?
The value was “improves their effectiveness”.

What about the “effectiveness of sorafenib in inducing apoptosis” value ([6]; HCC cell lines, co-treated with Sorafenib 5 μM, STF 60 μM, FIG. 3B) of the same compound?
Its value is “improves their effectiveness”.

What about the “sorafenib-mediated tumor suppression (tumor volume)” value ([7]; STF-083010 30 mg/kg i.p. twice a week with Sorafenib 30 mg/kg i.p. daily, FIG. 6B) of the same compound?
The value was “increased”.

What does the source list for COc1cc2c(C)c(CC(=O)N3CCOCC3)c(=O)oc2c(C=O)c1O [MKC6688]?
liver cancer cell proliferation and apoptosis, alone and co-treated with sorafenib (confirmation of the STF-083010 data) [5]: confirmed; sorafenib-mediated tumor suppression (confirmation of the STF-083010 data) ([7]; data not shown): confirmed

For Ac-YVAD-CMK, which “effectiveness of sorafenib in reducing liver cancer cell proliferation” value ([5]; HepG2, YVAD 25 μM added one hour before Sorafenib, 24 hours, not more efficiently than SFT-083010, FIG. 4) is on record?
The value was “enhances”.

And the “effectiveness of sorafenib in inducing apoptosis” value ([6]; HepG2, YVAD 25 μM added one hour before Sorafenib, not more efficiently than SFT-083010, FIG. 4)?
Its value is “enhances”.

For CN1C(=O)C(Cc2c[nH]c3ccccc23)NC1=S (stereo not shown) [Necrostatin-1], which “effect of Sorafenib and SFT-083010 on cancer cell proliferation after pre-treatment” value ([5]; HepG2, 50 μM pre-treatment, Sorafenib 5 μM, STF 60 μM, 24 hours, FIGS. 5A and 5B) is on record?
The value was “inhibit the effect”.

Which “liver cancer cell proliferation and apoptosis, alone and co-treated with sorafenib (confirmation of the STF-083010 data)” value [5] does the source give for Cc1cc(=O)oc2c(C=O)c(O)ccc12 [4μ8c] here?
Its value is “confirmed”.
